This passage reports IC50 results from patent US11021481B2, “Substituted isoindolin-1-ones and 2,3-dihydro-1h-pyrrolo[3,4-c]pyridin-1-ones as HPK1 antagonists” (Nimbus Saturn, Inc., priority 2019, dated 2021).

HPK1, sequence (Q92918 whole entry): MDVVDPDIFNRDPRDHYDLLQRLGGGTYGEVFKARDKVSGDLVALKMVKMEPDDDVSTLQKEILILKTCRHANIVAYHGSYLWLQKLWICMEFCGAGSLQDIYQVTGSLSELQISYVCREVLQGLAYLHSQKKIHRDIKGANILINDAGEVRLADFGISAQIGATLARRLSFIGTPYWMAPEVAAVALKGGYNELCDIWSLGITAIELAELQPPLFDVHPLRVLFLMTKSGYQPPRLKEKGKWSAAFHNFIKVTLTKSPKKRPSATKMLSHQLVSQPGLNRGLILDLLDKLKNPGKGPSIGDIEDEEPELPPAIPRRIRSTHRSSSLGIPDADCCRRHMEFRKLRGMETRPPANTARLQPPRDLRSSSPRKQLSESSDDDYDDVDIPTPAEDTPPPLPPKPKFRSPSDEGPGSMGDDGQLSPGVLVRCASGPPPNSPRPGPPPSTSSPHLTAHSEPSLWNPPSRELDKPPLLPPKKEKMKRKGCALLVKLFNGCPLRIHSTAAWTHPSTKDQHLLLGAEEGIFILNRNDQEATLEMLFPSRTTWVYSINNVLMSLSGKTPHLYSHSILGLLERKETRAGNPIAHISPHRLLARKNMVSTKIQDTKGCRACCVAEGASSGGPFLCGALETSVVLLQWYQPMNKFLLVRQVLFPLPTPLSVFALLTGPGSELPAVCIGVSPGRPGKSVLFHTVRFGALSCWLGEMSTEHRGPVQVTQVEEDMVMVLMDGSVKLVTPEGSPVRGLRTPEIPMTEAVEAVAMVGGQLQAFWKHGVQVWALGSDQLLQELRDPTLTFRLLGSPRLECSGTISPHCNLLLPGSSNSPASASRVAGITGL

The test has as its target HPK1 (Homo sapiens (Human), UniProt Q92918). The experiment in a line: HPK1 biochemical enzyme assay (microfluidic mobility shift assay). The conditions noted are these: 1.5 nM HPK1, ATP 1 mM final, 30 min preincubation, 60 min at RT, Caliper EZ Reader; read-out: HPK1 1000UMATP caliper IC50. In short, it runs like this:
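Ten-point compound titrations (top 3 μM final) preincubated 30 min with HPK1 and substrate, then reaction started with 1 mM ATP and 1 μM substrate, 5 mM MgCl2. After 60 min at RT, reaction terminated and product measured by microfluidic mobility shift.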
On to `CC1(CO)CCN(c2ccc(Nc3ccc(-c4cnc5cc(F)ccn45)c4c3C(=O)NC4)nc2)CC1` [I-433, 4-(7-fluoroimidazo [1,2-a]pyridin-3-yl)-7-((5-(4-(hydroxymeth-yl]-4-methylpiperidin-1-yl)pyridin-2-yl)amino)isoin-dolin-1-one], for which the IC50 was below 100 nM.

For the compound `Cc1c[nH]c2nccc(-c3ccc(Nc4ccc(N5CCN(C)CC5)cn4)c4c3CNC4=O)c12` [I-42, 7-[[5-(4-methylpiperazin-1-yl)-2-pyridyl]amino]-4-(3-methyl-1H-pyrrolo[2,3-b]pyridin-4-yl)isoindolin-1-one], the half-maximal inhibitory concentration (IC50) was below 100 nM.

As to `Cc1ccn2c(-c3ccc(Nc4ccc([C@@H]5CCOC5)cn4)c4c3CNC4=O)cnc2c1` [I-192, (S)-4-(7-methylimidazo [1,2-a]pyridin-3-yl)-7-((5-(tetrahydro-furan-3-yl)pyridin-2-yl)amino)isoin-dolin-1-one], the IC50 was below 100 nM.

Consider `CN(C)Cc1nc(Nc2ccc(-c3cnc4cc(F)ccn34)c3c2C(=O)NC3)ccc1[C@H]1CCCOC1` [I-550], for which the IC50 was below 100 nM.

On to `C[C@@H](c1ccc(Nc2ccc(-c3cnc4cc(F)ccn34)c3c2C(=O)NC3)nc1)N(C)C` [I-520, (S)-7-((5-(1-(dimethylami-no)ethyl)pyridin-2-yl)amino)-4-(7-fluoroimidazo [1,2-a]pyridin-3-yl)isoindolin-1-one], for which the IC50 was below 100 nM.

For `O=C1NCc2c(-c3cnc4cc(F)ccn34)ccc(Nc3ccc(N4CCO[C@H](CNC5CC5)C4)cn3)c21` [I-477, 7-[[5-[(2R)-2-[(cyclopropylamino)methyl]morpholin-4-yl]-2-pyridyl]amino]-4-(7-fluoroimidazo [1,2-a]pyridin-3-yl)isoindolin-1-one], the IC50 is below 100 nM.

For the compound `CN(C)Cc1nc(Nc2ccc(-c3cnc4cc(F)ccn34)c3c2C(=O)NC3)ccc1C1CCC1` [I-788, 7-((5-cyclobutyl-6-((dimethylamino)-methyl)pyri-din-2-yl)amino)-4-(7-fluoroimidazo [1,2-a]pyridin-3-yl)isoindolin-1-one], the IC50 is below 100 nM.

As for `CN1CCc2cc(-c3ccc(Nc4ccc(N5CCC(O)CC5)cn4)c4c3CNC4=O)nn2CC1=O` [I-290, 2-(7-((5-(4-hydroxy-piperidin-1-yl)pyridin-2-yl)amino)-1-oxoisoindolin-4-yl)-6-methyl-5,6-dihydro-4H-pyrazolo[1,5-d][1,4]diaze-pin-7(8H)-one], the IC50 is above 1000 nM.

As to `CN1CC[C@H](c2ccc(Nc3ccc(-c4cnc5cc(F)ccn45)c4c3C(=O)NC4)nc2)C1=O` [I-336, (R)-4-(7-fluoroimidazo [1,2-a]pyridin-3-yl)-7-((5-(1-methyl-2-oxopyrrolidin-3-yl)pyridin-2-yl)amino)isoin-dolin-1-one], the IC50 is below 100 nM.

Regarding `Cc1ccn2c(-c3ccc(Nc4ccc(N5CC[C@@H](F)[C@H](O)C5)cn4)c4c3CNC4=O)cnc2c1F` [I-583, 7-((5-((3R,4R]-4-fluoro-3-hydroxypiperidin-1-yl)pyridin-2-yl)amino)-4-(8-fluoro-7-methylimidazo [1,2-a]pyridin-3-yl)isoindolin-1-one], the IC50 is below 100 nM.

For the compound `COC[C@H]1CN(c2ccc(Nc3ccc(-c4cnc5cc(F)ccn45)c4c3C(=O)NC4)nc2)CCO1` [I-421, (R)-4-(7-fluoroimidazo [1,2-a]pyridin-3-yl)-7-((5-(2-(methoxymeth-yl)morpholino)pyridin-2-yl)amino)isoin-dolin-1-one], the IC50 is below 100 nM.
